Measured values published in article PMC3961306, “Comparison of the Cancer Gene Targeting and Biochemical Selectivities of All Targeted Kinase Inhibitors Approved for Clinical Use” (PLoS ONE, 2014).

Tests used:
Assay in all cases: Kinase profiling in a biochemical assay panel (mobility shift assays and ELISA), %-inhibition at 1 μM; selectivity entropy
[1] = biological target: panel of more than 300 wild-type and mutant kinases (313 kinase panel) (Homo sapiens, UniProt Q8N568)
[2] = biological target: panel of more than 300 wild-type and mutant kinases (313 kinase panel) (Homo sapiens, UniProt P04626); conditions: kinase HER2; compound at 1 μM
Chain of panel of more than 300 wild-type and mutant kinases (313 kinase panel) (Homo sapiens, UniProt P04626) (P04626 23-1255, change not shown): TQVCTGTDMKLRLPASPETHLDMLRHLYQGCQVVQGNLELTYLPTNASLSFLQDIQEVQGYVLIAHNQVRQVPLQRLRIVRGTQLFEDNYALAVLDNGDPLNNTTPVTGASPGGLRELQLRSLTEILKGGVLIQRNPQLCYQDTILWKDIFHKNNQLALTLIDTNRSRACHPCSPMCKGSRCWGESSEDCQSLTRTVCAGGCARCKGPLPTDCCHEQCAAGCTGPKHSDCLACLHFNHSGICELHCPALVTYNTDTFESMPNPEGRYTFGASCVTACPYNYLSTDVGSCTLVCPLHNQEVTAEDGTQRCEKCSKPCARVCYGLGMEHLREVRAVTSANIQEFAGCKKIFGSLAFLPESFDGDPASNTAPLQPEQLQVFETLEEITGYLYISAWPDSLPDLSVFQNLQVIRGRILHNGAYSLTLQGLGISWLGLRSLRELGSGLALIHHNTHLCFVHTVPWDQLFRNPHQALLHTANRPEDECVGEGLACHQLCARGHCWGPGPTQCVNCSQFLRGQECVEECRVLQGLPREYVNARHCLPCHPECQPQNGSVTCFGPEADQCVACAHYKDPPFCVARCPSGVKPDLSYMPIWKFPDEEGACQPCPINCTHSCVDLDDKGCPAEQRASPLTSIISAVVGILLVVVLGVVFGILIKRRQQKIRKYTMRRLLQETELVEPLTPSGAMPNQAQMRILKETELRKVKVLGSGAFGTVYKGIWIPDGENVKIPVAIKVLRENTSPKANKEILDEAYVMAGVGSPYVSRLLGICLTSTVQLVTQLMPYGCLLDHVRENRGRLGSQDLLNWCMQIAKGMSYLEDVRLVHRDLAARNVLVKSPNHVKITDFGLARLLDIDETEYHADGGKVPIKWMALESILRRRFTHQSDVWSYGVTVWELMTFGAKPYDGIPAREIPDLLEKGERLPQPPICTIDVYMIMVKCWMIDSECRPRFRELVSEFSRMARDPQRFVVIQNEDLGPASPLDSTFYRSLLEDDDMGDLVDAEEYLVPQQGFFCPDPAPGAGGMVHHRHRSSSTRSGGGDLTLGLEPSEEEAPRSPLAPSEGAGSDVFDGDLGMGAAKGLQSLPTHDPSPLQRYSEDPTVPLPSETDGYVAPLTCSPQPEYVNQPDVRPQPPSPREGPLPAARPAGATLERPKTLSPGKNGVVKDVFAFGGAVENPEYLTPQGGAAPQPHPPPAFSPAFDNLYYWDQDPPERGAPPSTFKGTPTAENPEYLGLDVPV

[3] = biological target: T1, panel of more than 300 wild-type and mutant kinases (313 kinase panel) (Homo sapiens, UniProt Q8TDC3)
T1 sequence (Q8TDC3 1-778): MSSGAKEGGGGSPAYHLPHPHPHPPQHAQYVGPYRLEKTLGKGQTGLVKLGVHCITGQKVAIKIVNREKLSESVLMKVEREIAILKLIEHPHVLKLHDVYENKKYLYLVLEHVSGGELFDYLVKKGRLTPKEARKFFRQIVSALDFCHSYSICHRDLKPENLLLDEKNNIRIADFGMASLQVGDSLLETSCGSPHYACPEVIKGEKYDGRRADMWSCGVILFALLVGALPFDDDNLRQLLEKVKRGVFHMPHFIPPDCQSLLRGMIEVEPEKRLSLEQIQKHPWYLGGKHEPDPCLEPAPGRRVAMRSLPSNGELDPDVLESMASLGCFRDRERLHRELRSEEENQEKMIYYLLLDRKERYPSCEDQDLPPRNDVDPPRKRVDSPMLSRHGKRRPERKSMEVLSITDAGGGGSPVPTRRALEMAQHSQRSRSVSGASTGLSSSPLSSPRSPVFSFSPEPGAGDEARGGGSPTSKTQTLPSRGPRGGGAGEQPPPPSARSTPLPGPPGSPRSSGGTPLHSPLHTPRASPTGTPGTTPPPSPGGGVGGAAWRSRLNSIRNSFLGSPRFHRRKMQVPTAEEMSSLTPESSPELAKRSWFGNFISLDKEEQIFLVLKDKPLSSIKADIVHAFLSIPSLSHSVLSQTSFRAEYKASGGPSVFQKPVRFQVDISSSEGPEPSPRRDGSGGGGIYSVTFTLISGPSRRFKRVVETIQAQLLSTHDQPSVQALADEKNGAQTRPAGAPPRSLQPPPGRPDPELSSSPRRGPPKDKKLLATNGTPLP

[4] = biological target: panel of more than 300 wild-type and mutant kinases (313 kinase panel) (Homo sapiens, UniProt P07949, M918T)
Chain of panel of more than 300 wild-type and mutant kinases (313 kinase panel) (Homo sapiens, UniProt P07949, M918T) (P07949 29-1114 M918T): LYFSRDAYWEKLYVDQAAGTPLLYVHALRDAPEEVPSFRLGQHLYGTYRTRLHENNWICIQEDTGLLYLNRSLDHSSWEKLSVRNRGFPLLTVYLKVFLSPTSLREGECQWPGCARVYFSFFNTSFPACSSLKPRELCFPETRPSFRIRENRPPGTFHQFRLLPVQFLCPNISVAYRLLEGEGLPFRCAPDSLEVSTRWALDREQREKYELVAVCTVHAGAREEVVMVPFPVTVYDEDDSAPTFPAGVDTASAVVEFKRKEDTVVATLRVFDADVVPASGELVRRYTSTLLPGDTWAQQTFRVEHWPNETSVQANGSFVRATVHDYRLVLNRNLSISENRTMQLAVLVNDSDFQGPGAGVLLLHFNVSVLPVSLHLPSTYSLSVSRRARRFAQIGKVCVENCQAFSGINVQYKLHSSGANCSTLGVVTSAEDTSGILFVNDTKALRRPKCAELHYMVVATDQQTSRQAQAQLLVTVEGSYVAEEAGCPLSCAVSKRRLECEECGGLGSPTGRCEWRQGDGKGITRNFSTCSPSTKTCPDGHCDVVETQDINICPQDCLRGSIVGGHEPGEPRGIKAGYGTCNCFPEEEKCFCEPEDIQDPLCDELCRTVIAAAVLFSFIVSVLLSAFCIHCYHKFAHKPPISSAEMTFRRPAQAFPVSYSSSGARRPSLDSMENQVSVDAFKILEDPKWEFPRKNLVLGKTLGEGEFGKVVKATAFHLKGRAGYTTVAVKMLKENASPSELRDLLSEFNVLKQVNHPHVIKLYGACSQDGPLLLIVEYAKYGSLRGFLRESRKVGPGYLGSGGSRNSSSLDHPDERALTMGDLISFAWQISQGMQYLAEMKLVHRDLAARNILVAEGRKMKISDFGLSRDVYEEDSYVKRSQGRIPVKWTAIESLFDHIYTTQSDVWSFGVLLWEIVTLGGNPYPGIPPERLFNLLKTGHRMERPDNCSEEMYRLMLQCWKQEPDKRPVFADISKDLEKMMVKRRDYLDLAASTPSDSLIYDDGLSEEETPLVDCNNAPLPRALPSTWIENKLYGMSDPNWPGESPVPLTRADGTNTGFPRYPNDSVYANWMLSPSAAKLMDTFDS

[5] = biological target: T2, panel of more than 300 wild-type and mutant kinases (313 kinase panel) (Homo sapiens, UniProt Q9Y2U5)
T2 sequence (Q9Y2U5 1-619): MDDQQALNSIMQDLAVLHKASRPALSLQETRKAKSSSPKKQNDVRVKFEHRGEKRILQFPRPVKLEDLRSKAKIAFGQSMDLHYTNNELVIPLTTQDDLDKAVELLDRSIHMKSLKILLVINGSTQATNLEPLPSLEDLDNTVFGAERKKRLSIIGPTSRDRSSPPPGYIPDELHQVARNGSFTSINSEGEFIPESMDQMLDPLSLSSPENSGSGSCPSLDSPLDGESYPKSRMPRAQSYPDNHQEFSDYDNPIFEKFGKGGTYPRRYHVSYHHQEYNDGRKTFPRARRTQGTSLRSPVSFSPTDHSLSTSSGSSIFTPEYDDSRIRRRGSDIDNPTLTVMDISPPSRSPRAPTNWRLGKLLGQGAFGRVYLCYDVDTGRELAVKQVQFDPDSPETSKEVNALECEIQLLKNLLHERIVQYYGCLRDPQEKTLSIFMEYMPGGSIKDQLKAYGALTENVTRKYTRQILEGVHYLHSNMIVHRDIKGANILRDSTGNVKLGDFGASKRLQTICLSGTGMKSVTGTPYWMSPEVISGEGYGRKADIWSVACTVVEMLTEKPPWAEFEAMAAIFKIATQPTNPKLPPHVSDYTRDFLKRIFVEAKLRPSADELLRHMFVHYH

[6] = biological target: panel of more than 300 wild-type and mutant kinases (313 kinase panel) (Homo sapiens, UniProt Q9UK32)
Chain of panel of more than 300 wild-type and mutant kinases (313 kinase panel) (Homo sapiens, UniProt Q9UK32) (Q9UK32 whole entry, change not shown): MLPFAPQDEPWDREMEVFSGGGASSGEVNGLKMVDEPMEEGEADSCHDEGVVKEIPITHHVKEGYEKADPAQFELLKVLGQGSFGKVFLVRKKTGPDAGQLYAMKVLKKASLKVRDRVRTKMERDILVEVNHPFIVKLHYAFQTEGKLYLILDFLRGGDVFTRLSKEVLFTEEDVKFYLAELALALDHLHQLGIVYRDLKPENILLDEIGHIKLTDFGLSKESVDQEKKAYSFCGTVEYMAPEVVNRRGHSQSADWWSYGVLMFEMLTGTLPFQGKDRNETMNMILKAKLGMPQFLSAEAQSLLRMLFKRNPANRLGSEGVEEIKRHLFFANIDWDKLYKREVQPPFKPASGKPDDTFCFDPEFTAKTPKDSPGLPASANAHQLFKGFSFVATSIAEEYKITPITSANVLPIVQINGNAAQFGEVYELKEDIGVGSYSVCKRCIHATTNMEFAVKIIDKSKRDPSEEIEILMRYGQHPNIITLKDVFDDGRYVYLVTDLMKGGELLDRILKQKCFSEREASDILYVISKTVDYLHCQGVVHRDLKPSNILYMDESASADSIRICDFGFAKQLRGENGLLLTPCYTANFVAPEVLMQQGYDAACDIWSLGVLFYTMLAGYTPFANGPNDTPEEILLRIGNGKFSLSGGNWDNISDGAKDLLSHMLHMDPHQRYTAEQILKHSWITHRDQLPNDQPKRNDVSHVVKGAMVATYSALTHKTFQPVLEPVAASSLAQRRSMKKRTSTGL

[7] = biological target: T3, panel of more than 300 wild-type and mutant kinases (313 kinase panel) (Homo sapiens, UniProt Q05513)
T3 sequence (Q05513 1-592): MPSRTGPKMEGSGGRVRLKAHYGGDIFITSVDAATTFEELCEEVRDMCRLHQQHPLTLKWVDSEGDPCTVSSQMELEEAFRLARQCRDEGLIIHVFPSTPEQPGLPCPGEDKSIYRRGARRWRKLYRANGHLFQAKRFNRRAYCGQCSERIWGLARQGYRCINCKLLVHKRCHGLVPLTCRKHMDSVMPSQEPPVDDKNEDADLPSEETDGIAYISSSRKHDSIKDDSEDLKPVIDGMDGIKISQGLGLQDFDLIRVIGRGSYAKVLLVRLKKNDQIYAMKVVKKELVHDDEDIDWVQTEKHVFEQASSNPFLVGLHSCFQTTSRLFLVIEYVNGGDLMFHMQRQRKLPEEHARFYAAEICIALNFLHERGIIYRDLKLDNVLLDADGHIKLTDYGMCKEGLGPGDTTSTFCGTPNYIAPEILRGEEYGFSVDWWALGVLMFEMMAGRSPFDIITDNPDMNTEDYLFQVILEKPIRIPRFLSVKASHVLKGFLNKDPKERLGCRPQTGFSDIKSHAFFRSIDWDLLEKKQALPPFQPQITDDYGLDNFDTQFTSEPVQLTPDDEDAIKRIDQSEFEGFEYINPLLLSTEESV

[8] = kinase DCAMKL2, compound at 1 μM
[9] = kinase MAP3K2, compound at 1 μM

| SMILES | %-inhibition of DCAMKL2 [1, 8] | %-inhibition of HER2 [2] | %-inhibition, BRSK1 ([3]; kinase BRSK1, 1 μM compound) | %-inhibition of RET(M918T) ([4]; kinase RET(M918T), 1 μM) | %-inhibition of MAP3K2 [5, 9] | %-inhibition of RSK4 ([6]; kinase RSK4, 1 μM) | %-inhibition of PKCζ ([7]; kinase PKCζ, 1 μM) | %-inhibition of MAP3K2 ([5]; 1 µM) | %-inhibition of RET(M918T) ([4]; 1 µM) | %-inhibition of DCAMKL2 ([1]; 1 µM) | %-inhibition, BRSK1 ([3]; 1 µM) | %-inhibition of RSK4 ([6]; 1 µM) | %-inhibition of PKCζ ([7]; 1 µM) |
| --- | --- | --- | --- | --- | --- | --- | --- | --- | --- | --- | --- | --- | --- |
| CC(C)(C)c1nc(-c2cccc(NS(=O)(=O)c3c(F)cccc3F)c2F)c(-c2ccnc(N)n2)s1 [dabrafenib] | 19% | 50% | 37% | 37% | 71% | 2.2% | 5% |  |  |  |  |  |  |
| CCCS(=O)(=O)Nc1ccc(F)c(C(=O)c2c[nH]c3ncc(-c4ccc(Cl)cc4)cc23)c1F [vemurafenib] | -3.52% | 2% | -8% | 11% | 21% | -3% | 13% |  |  |  |  |  |  |
| Cc1nc(Nc2ncc(C(=O)Nc3c(C)cccc3Cl)s2)cc(N2CCN(CCO)CC2)n1 [dasatinib] | 2% |  |  |  |  |  |  |  |  |  |  |  |  |
| C[C@@H](Oc1cc(-c2cnn(C3CCNCC3)c2)cnc1N)c1c(Cl)ccc(F)c1Cl [crizotinib] | 49% | -0.714% | 12% |  |  | -1.58% | 9% |  |  |  |  |  |  |
| Cc1ccc(C(=O)Nc2ccc(CN3CCN(C)CC3)c(C(F)(F)F)c2)cc1C#Cc1cnc2cccnn12 [ponatinib] | -3.72% | 88% | -8% | 101% | 79% | 13% | 14% |  |  |  |  |  |  |
| O=S(=O)(c1cccc2cnccc12)N1CCCNCC1 [fasudil] | -2% | 0.678% | -0.211% |  | -15% | 16% | 7.57% |  |  |  |  |  |  |
| COc1cc(Nc2c(C#N)cnc3cc(OCCCN4CCN(C)CC4)c(OC)cc23)c(Cl)cc1Cl [bosutinib] | -2.32% | 88% | -11% | 93% |  | 43% | 14% | 93% |  |  |  |  |  |
| CO[C@H]1C[C@@H]2CC[C@@H](C)[C@@](O)(O2)C(=O)C(=O)N2CCCC[C@H]2C(=O)O[C@H]([C@H](C)C[C@@H]2CC[C@@H](OCCO)[C@H](OC)C2)CC(=O)[C@H](C)/C=C(\C)[C@@H](O)[C@@H](OC)C(=O)[C@H](C)C[C@H](C)/C=C/C=C/C=C/1C [everolimus] | -5.64% | -2.5% | -9% | -4.61% | 7.56% | -8% | 5% |  |  |  |  |  |  |
| Cc1ccc(Nc2nccc(N(C)c3ccc4c(C)n(C)nc4c3)n2)cc1S(N)(=O)=O [pazopanib] | -2.72% | 1.07% | -1.05% | 86% | 46% | 10% | -0.674% |  |  |  |  |  |  |
| CNC(=O)c1cc(Oc2ccc(NC(=O)Nc3ccc(Cl)c(C(F)(F)F)c3)c(F)c2)ccn1 [regorafenib] | -6% | 6.43% | -17% |  | 19% | -1.19% | 5% |  | 102% |  |  |  |  |
| CC(=O)Nc1cccc(-n2c(=O)n(C3CC3)c(=O)c3c(Nc4ccc(I)cc4F)n(C)c(=O)c(C)c32)c1 [trametinib] | -2.4% | -5.36% | -6% | -1.41% | 0.801% | 0.208% | 4.31% |  |  |  |  |  |  |
| CO[C@H]1C[C@@H]2CC[C@@H](C)[C@@](O)(O2)C(=O)C(=O)N2CCCC[C@H]2C(=O)O[C@H]([C@H](C)C[C@@H]2CC[C@@H](OC(=O)C(C)(CO)CO)[C@H](OC)C2)CC(=O)[C@H](C)/C=C(\C)[C@@H](O)[C@@H](OC)C(=O)[C@H](C)C[C@H](C)/C=C/C=C/C=C/1C [temsirolimus] | -4% | -0.179% | -14% | -3.41% | 5.58% | -6% | 5% |  |  |  |  |  |  |
| COc1cc2c(Nc3ccc(Br)cc3F)ncnc2cc1OCC1CCN(C)CC1 [vandetanib] | -5% | 67% | -9% |  | 14% | 5.43% | 1.3% |  |  |  |  |  |  |
| COc1cc2nccc(Oc3ccc(NC(=O)C4(C(=O)Nc5ccc(F)cc5)CC4)cc3)c2cc1OC [cabozantinib] | -2.62% | 10% | 3.24% |  | 9% | -3.65% | 4% |  |  |  |  |  |  |
| N#CC[C@H](C1CCCC1)n1cc(-c2ncnc3[nH]ccc23)cn1 [ruxolitinib] |  | -3.75% | -6.38% |  |  | 3.16% | -9% | 75% |  | 64% |  |  |  |
| C#Cc1cccc(Nc2ncnc3cc(OCCOC)c(OCCOC)cc23)c1 [erlotinib] |  |  |  |  |  |  |  | 14% | 67% | 5% | 5.68% | 8% | 7% |
